{"source": "patent US9034901B2", "about": "“Pitavastatin calcium and process for its preparation” (Cadila Healthcare Limited, priority 2010, dated 2015)", "key": {"[1]": {"test_system": "patients with hypercholesterolaemia", "details": "cited from earlier work"}, "[2]": {"details": "cited from earlier work; for purity / water content / total impurities: US '987 A1 Table 1; for total impurities: in % (unit assumed)"}, "[3]": {"assay": "Stability of pitavastatin calcium crystalline form at 40° C./75% RH and 25° C./60% RH (water by KF, related substances)", "type": "physicochemical", "experimental": "In general, the stability of pitavastatin calcium crystalline form having water content 5% wt/wt at 40° C./75% RH and 25° C./60% RH is shown in Table-1."}, "[4]": {"details": "kept at 40° C. (air tight), after 90 days"}, "[5]": {"details": "kept at 40° C. (air tight), initial"}, "[6]": {"details": "kept in open air, after 90 days"}, "[7]": {"details": "1 month, 40° C. ± 2° C., RH 75% ± 5%"}, "[8]": {"details": "2 month, 40° C. ± 2° C., RH 75% ± 5%"}, "[9]": {"details": "3 month, 25° C. ± 2° C., RH 60% ± 5%"}, "[10]": {"details": "3 month, 40° C. ± 2° C., RH 75% ± 5%"}}, "note": "Counter-ions that a name gives are not always drawn. Like-named read-outs stand apart in the source and are kept apart here.", "data": [{"smiles": "O=C(O)C[C@H](O)C[C@H](O)/C=C/c1c(C2CC2)nc2ccccc2c1-c1ccc(F)cc1", "note": "[pitavastatin]", "values": [{"measurement": "potency", "setting": "[1]; on the basis of reported data, dose-dependent", "result": "equivalent to that of atorvastatin"}]}, {"smiles": "O=C(O)C[C@H](O)C[C@H](O)/C=C/c1c(C2CC2)nc2ccccc2c1-c1ccc(F)cc1", "note": "[pitavastatin calcium, (3R,5S)-7-[2-cyclopropyl-4-(4-flourophenyl)-quinolin-3-yl]-3,5-dihydroxy-6-(E)-heptenoic acid calcium salt]", "values": [{"measurement": "purity", "setting": "[2]; [4]", "result": 99.64}, {"measurement": "water content", "setting": "[2]; [4]", "result": 7.81, "unit": "%"}, {"measurement": "total impurities", "setting": "[2]; [4]", "result": 0.211}, {"measurement": "purity", "setting": "[2]; [5]", "result": 99.38, "unit": "%"}, {"measurement": "water content", "setting": "[2]; [5]", "result": "about 7.89"}, {"measurement": "total impurities", "setting": "[2]; [5]", "result": 0.179}, {"measurement": "purity", "setting": "[2]; [6]", "result": 96.49}, {"measurement": "water content", "setting": "[2]; [6]", "result": 1.77, "unit": "%"}, {"measurement": "total impurities", "setting": "[2]; [6]", "result": 2.099}, {"measurement": "purity", "setting": "[2]; kept in open air, initial", "result": 99.38, "unit": "%"}, {"measurement": "water content", "setting": "[2]; kept in open air, initial", "result": "about 7.89"}, {"measurement": "total impurities", "setting": "[2]; kept in open air, initial", "result": 0.179}, {"measurement": "stability during the storage", "setting": "[2]; pitavastatin calcium which has become amorphous, reported in US '987 A1", "result": "very poor stability"}, {"measurement": "Related Substances: 5-oxo", "setting": "[3]; [7]", "result": 0.11, "unit": "%"}, {"measurement": "Related Substances: Desflouro", "setting": "[3]; [7]", "result": 0.05, "unit": "%"}, {"measurement": "Related Substances: Diastereomer", "setting": "[3]; [7]", "result": 0.11, "unit": "%"}, {"measurement": "Related Substances: Total Impurities", "setting": "[3]; [7]", "result": 0.28, "unit": "%"}, {"measurement": "Water by KF", "setting": "[3]; [7]", "result": 2.9, "unit": "% w/w"}, {"measurement": "Related Substances: 5-oxo", "setting": "[3]; [8]", "result": 0.15, "unit": "%"}, {"measurement": "Related Substances: Desflouro", "setting": "[3]; [8]", "result": 0.05, "unit": "%"}, {"measurement": "Related Substances: Diastereomer", "setting": "[3]; [8]", "result": 0.11, "unit": "%"}, {"measurement": "Related Substances: Total Impurities", "setting": "[3]; [8]", "result": 0.31, "unit": "%"}, {"measurement": "Water by KF", "setting": "[3]; [8]", "result": 4.3, "unit": "% w/w"}, {"measurement": "Related Substances: 5-oxo", "setting": "[3]; [9]", "result": 0.12, "unit": "%"}, {"measurement": "Related Substances: Desflouro", "setting": "[3]; [9]", "result": 0.05, "unit": "%"}, {"measurement": "Related Substances: Diastereomer", "setting": "[3]; [9]", "result": 0.12, "unit": "%"}, {"measurement": "Related Substances: Lactone", "setting": "[3]; [9]", "result": 0.07, "unit": "%"}, {"measurement": "Related Substances: Total Impurities", "setting": "[3]; [9]", "result": 0.36, "unit": "%"}, {"measurement": "Water by KF", "setting": "[3]; [9]", "result": 3.9, "unit": "% w/w"}, {"measurement": "Related Substances: 5-oxo", "setting": "[3]; [10]", "result": 0.14, "unit": "%"}, {"measurement": "Related Substances: Desflouro", "setting": "[3]; [10]", "result": 0.05, "unit": "%"}, {"measurement": "Related Substances: Diastereomer", "setting": "[3]; [10]", "result": 0.11, "unit": "%"}, {"measurement": "Related Substances: Lactone", "setting": "[3]; [10]", "result": 0.09, "unit": "%"}, {"measurement": "Related Substances: Total Impurities", "setting": "[3]; [10]", "result": 0.39, "unit": "%"}, {"measurement": "Water by KF", "setting": "[3]; [10]", "result": 4.2, "unit": "% w/w"}, {"measurement": "Related Substances: 5-oxo", "setting": "[3]; Initial", "result": 0.07, "unit": "%"}, {"measurement": "Related Substances: Desflouro", "setting": "[3]; Initial", "result": 0.05, "unit": "%"}, {"measurement": "Related Substances: Diastereomer", "setting": "[3]; Initial", "result": 0.17, "unit": "%"}, {"measurement": "Related Substances: Total Impurities", "setting": "[3]; Initial", "result": 0.32, "unit": "%"}, {"measurement": "Water by KF", "setting": "[3]; Initial", "result": 3.0, "unit": "% w/w"}, {"measurement": "safety and tolerability", "setting": "[1]; treatment of patients with hypercholesterolaemia", "result": "safe and well tolerated"}]}]}
